In US5330743A, “Aminosaccharide contrast agents for magnetic resonance images” (Magnetic Research, Inc., priority 1992, dated 1994):
Read-outs that look alike come from different tables or passages of the source. Values belong to the molecule of their own block, whether it stands above or below them.

Key:
[1] = MR contrast enhancement of muscle in rabbits (T1W spin echo, 1.5 Tesla); type: in vivo, New Zealand White rabbits; conditions: 0.1 mM/kg intravenously
Description: (§1) TR=750 msec. TE=37 msec. NEX=4. Flow compensation was used.

[2] = MR contrast enhancement of kidney in rabbits (T1W spin echo, 1.5 Tesla); type: in vivo, New Zealand White rabbits; conditions: 0.1 mM/kg intravenously; for time at which contrast enhancement of kidney was well demonstrated: after contrast injection
Description: as §1

[3] = for time at which contrast enhancement of liver was well demonstrated: after contrast injection
Description: New Zealand White rabbits were used for all magnetic resonance imaging (MRI) experiments. A General Electric 1.5 Tesla system was used with the knee coil. T1W spin echo images were obtained every 10 minutes following contrast injection. Data points were taken as the time at the end of the scan. Each data point was measured in triplicate with sample signal intensities taken from the liver, kidney, and muscle. TR=750 msec. TE=37 msec. NEX=4. Flow compensation was used. Sedation was performed by using an initial injection of intramuscular ketamine at 110 mg/kg and pentobarbital intravenously at 2.2 cc/kg. Sedation was maintained with intermittent pentobarbital injections as needed at 1 cc/kg.
Two rabbits were given gadolinium DTPA bis-glucosamide at 0.1 mM/kg intravenously. MR images were taken before and after the injection of the contrast agent.
MR images were taken before and after the injection of contrast agent.
Gadolinium DTPA bis-pyriodoxamide was given intravenously at 0.1 mM/kg. MR images were taken before and after the injection of contrast agent.
Comparison is made with two animals which were given Gd DTPA (Schering A. G., Berlin, Germany) 0.1 mM/kg intravenously.

[4] = 11 min. P.I., 0.1 mM/kg intravenously
[5] = 21 min. P.I., 0.1 mM/kg intravenously
[6] = 31 min. P.I., 0.1 mM/kg intravenously
[7] = 44 min. P.I., 0.1 mM/kg intravenously
[8] = 54 min. P.I., 0.1 mM/kg intravenously
[9] = 64 min. P.I., 0.1 mM/kg intravenously
[10] = 76 min. P.I., 0.1 mM/kg intravenously
[11] = Pre-Contrast, 0.1 mM/kg intravenously
[12] = 85 min. P.I., 0.1 mM/kg intravenously

SMILES: O=C([O-])CN(CCN(CC(=O)[O-])CC(=O)N[C@H]1C(O)O[C@H](CO)[C@@H](O)[C@@H]1O)CCN(CC(=O)[O-])CC(=O)N[C@H]1C(O)O[C@H](CO)[C@@H](O)[C@@H]1O.[Gd+3] (stereo partly shown) [Gd DTPA Bis-Glucosamide, gadolinium DTPA bis-glucosamide]
contrast enhancement, muscle composite (av of 3) ([1]; 11 min. P.I.): 3.791% | contrast enhancement, muscle composite (av of 3) ([1]; 21 min. P.I.): -3.481% | contrast enhancement, muscle composite (av of 3) ([1]; 31 min. P.I.): -2.205% | contrast enhancement, muscle composite (av of 3) ([1]; 44 min. P.I.): -6.098% | contrast enhancement, muscle composite (av of 3) ([1]; 54 min. P.I.): -7.962% | contrast enhancement, muscle composite (av of 3) ([1]; 64 min. P.I.): -11.035% | contrast enhancement, muscle composite (av of 3) ([1]; 76 min. P.I.): -5.465% | contrast enhancement, muscle composite (av of 3) ([1]; Pre-Contrast): 0.000% | course of contrast enhancement after maximum, kidney [2]: decreased gradually | enhancement of the kidney compared to Gd DTPA [2]: improved enhancement | time until which maximum contrast enhancement was maintained, kidney [2]: 22 min | time at which contrast enhancement of kidney was well demonstrated [2]: 11 min | contrast enhancement, kidney composite (av of 3) ([2]; 11 min. P.I.): 77.532% | contrast enhancement, kidney composite (av of 3) ([2]; 21 min. P.I.): 68.552% | contrast enhancement, kidney composite (av of 3) ([2]; 31 min. P.I.): 46.320% | contrast enhancement, kidney composite (av of 3) ([2]; 44 min. P.I.): 42.172% | contrast enhancement, kidney composite (av of 3) ([2]; 54 min. P.I.): 31.288% | contrast enhancement, kidney composite (av of 3) ([2]; 64 min. P.I.): 30.596% | contrast enhancement, kidney composite (av of 3) ([2]; 76 min. P.I.): 22.065% | contrast enhancement, kidney composite (av of 3) ([2]; Pre-Contrast): 0.000% | course of contrast enhancement after maximum, liver ([3]; 0.1 mM/kg intravenously): decreased gradually | decrease in contrast, liver versus kidney ([3]; 0.1 mM/kg intravenously): slower in the liver than in the kidney | enhancement of the liver compared to Gd DTPA ([3]; 0.1 mM/kg intravenously): improved enhancement | time until which maximum contrast enhancement was maintained, liver ([3]; 0.1 mM/kg intravenously): 22 min | time at which contrast enhancement of liver was well demonstrated ([3]; 0.1 mM/kg intravenously): 11 min | contrast enhancement, liver composite (av of 3) [3, 4]: 17.157% | contrast enhancement, liver composite (av of 3) [3, 5]: 14.172% | contrast enhancement, liver composite (av of 3) [3, 6]: 11.053% | contrast enhancement, liver composite (av of 3) [3, 7]: 7.390% | contrast enhancement, liver composite (av of 3) [3, 8]: 9.910% | contrast enhancement, liver composite (av of 3) [3, 9]: 3.151% | contrast enhancement, liver composite (av of 3) [3, 10]: 1.750% | contrast enhancement, liver composite (av of 3) [3, 11]: 0.000%

SMILES: Cc1ncc(CO)c(CNC(=O)CN(CCN(CCN(CC(=O)[O-])CC(=O)NCc2c(CO)cnc(C)c2O)CC(=O)[O-])CC(=O)[O-])c1O.[Gd+3] [Gd DTPA Bis-Pyridoxamide, Gadolinium DTPA bis-pyriodoxamide]
contrast enhancement, muscle composite (av of 3) ([1]; 11 min. P.I.): 7.089% | contrast enhancement, muscle composite (av of 3) ([1]; 21 min. P.I.): 6.846% | contrast enhancement, muscle composite (av of 3) ([1]; 31 min. P.I.): -12.884% | contrast enhancement, muscle composite (av of 3) ([1]; Pre-Contrast): 0.000% | enhancement of the kidney compared to Gd DTPA [2]: improved renal enhancement | time of maximum contrast enhancement, kidney [2]: 11 min | time at which contrast enhancement of kidney was well demonstrated [2]: 11 min | contrast enhancement, kidney composite (av of 3) ([2]; 11 min. P.I.): 72.341% | contrast enhancement, kidney composite (av of 3) ([2]; 21 min. P.I.): 50.381% | contrast enhancement, kidney composite (av of 3) ([2]; 31 min. P.I.): 53.753% | contrast enhancement, kidney composite (av of 3) ([2]; Pre-Contrast): 0.000% | liver enhancement (in words) ([3]; 0.1 mM/kg intravenously): negative liver enhancement | contrast enhancement, liver composite (av of 3) [3, 4]: -4.567% | contrast enhancement, liver composite (av of 3) [3, 5]: -4.805% | contrast enhancement, liver composite (av of 3) [3, 6]: -3.018% | contrast enhancement, liver composite (av of 3) [3, 11]: 0.000%

time at which contrast agent appears to have been cleared from the liver ([3]; rabbit, in vivo, iv): 76 min
SMILES: O=C([O-])CN(CCN(CC(=O)[O-])CC(=O)N[C@H]1C(O)O[C@H](CO)[C@H](O)[C@@H]1O)CCN(CC(=O)[O-])CC(=O)N[C@H]1C(O)O[C@H](CO)[C@H](O)[C@@H]1O.[Gd+3] (stereo partly shown) [Gd DTPA Galactosamide, gadolinium DTPA galactosamide]
enhancement of the muscle compared to Gd DTPA [1]: improved enhancement | contrast enhancement, muscle composite (av of 3) ([1]; 11 min. P.I.): 18.349% | contrast enhancement, muscle composite (av of 3) ([1]; 21 min. P.I.): 24.593% | contrast enhancement, muscle composite (av of 3) ([1]; 31 min. P.I.): 12.578% | contrast enhancement, muscle composite (av of 3) ([1]; 44 min. P.I.): 7.783% | contrast enhancement, muscle composite (av of 3) ([1]; 54 min. P.I.): 14.531% | contrast enhancement, muscle composite (av of 3) ([1]; 64 min. P.I.): 12.252% | contrast enhancement, muscle composite (av of 3) ([1]; 76 min. P.I.): -10.121% | contrast enhancement, muscle composite (av of 3) ([1]; 85 min. P.I.): -3.078% | contrast enhancement, muscle composite (av of 3) ([1]; Pre-Contrast): 0.000% | course of contrast enhancement after maximum, kidney [2]: decreased very slowly | time of maximum contrast enhancement, kidney [2]: 22 min | time at which contrast enhancement of kidney was well demonstrated [2]: 11 min | contrast enhancement, kidney composite (av of 3) ([2]; 11 min. P.I.): 52.932% | contrast enhancement, kidney composite (av of 3) ([2]; 21 min. P.I.): 47.999% | contrast enhancement, kidney composite (av of 3) ([2]; 31 min. P.I.): 46.968% | contrast enhancement, kidney composite (av of 3) ([2]; 44 min. P.I.): 41.697% | contrast enhancement, kidney composite (av of 3) ([2]; 54 min. P.I.): 41.936% | contrast enhancement, kidney composite (av of 3) ([2]; 64 min. P.I.): 42.336% | contrast enhancement, kidney composite (av of 3) ([2]; 76 min. P.I.): 37.335% | contrast enhancement, kidney composite (av of 3) ([2]; 85 min. P.I.): 26.562% | contrast enhancement, kidney composite (av of 3) ([2]; Pre-Contrast): 0.000% | course of contrast enhancement after maximum, liver ([3]; 0.1 mM/kg intravenously): decreased rapidly | enhancement of the liver compared to Gd DTPA ([3]; 0.1 mM/kg intravenously): improved enhancement | time of maximum contrast enhancement, liver ([3]; 0.1 mM/kg intravenously): 11 min | time at which contrast enhancement of liver was well demonstrated ([3]; 0.1 mM/kg intravenously): 11 min | contrast enhancement, liver composite (av of 3) [3, 4]: 21.943% | contrast enhancement, liver composite (av of 3) [3, 5]: 13.116% | contrast enhancement, liver composite (av of 3) [3, 6]: 15.632% | contrast enhancement, liver composite (av of 3) [3, 7]: 11.724% | contrast enhancement, liver composite (av of 3) [3, 8]: 13.202% | contrast enhancement, liver composite (av of 3) [3, 9]: 8.360% | contrast enhancement, liver composite (av of 3) [3, 10]: 11.639% | contrast enhancement, liver composite (av of 3) [3, 12]: 15.451% | contrast enhancement, liver composite (av of 3) [3, 11]: 0.000%

SMILES: O=C([O-])CN(CCN(CC(=O)[O-])CC(=O)[O-])CCN(CC(=O)[O-])CC(=O)[O-].[Gd+3] [Gd DTPA, gadolinium diethylene triamine pentaacetic acid complex, reference compound]
contrast enhancement, muscle composite (av of 3) ([1]; 11 min. P.I.): 12.981% | contrast enhancement, muscle composite (av of 3) ([1]; 21 min. P.I.): 6.801% | contrast enhancement, muscle composite (av of 3) ([1]; 31 min. P.I.): 2.020% | contrast enhancement, muscle composite (av of 3) ([1]; 44 min. P.I.): -1.543% | contrast enhancement, muscle composite (av of 3) ([1]; 54 min. P.I.): -0.464% | contrast enhancement, muscle composite (av of 3) ([1]; 64 min. P.I.): -0.873% | contrast enhancement, muscle composite (av of 3) ([1]; 76 min. P.I.): -2.407% | contrast enhancement, muscle composite (av of 3) ([1]; 85 min. P.I.): -0.899% | contrast enhancement, muscle composite (av of 3) ([1]; Pre-Contrast): 0.000% | contrast enhancement, kidney composite (av of 3) ([2]; 11 min. P.I.): 52.456% | contrast enhancement, kidney composite (av of 3) ([2]; 21 min. P.I.): 40.275% | contrast enhancement, kidney composite (av of 3) ([2]; 31 min. P.I.): 28.971% | contrast enhancement, kidney composite (av of 3) ([2]; 44 min. P.I.): 29.243% | contrast enhancement, kidney composite (av of 3) ([2]; 54 min. P.I.): 28.405% | contrast enhancement, kidney composite (av of 3) ([2]; 64 min. P.I.): 27.052% | contrast enhancement, kidney composite (av of 3) ([2]; 76 min. P.I.): 23.751% | contrast enhancement, kidney composite (av of 3) ([2]; 85 min. P.I.): 14.643% | contrast enhancement, kidney composite (av of 3) ([2]; Pre-Contrast): 0.000% | contrast enhancement, liver composite (av of 3) [3, 4]: 4.822% | contrast enhancement, liver composite (av of 3) [3, 5]: 0.852% | contrast enhancement, liver composite (av of 3) [3, 6]: 6.132% | contrast enhancement, liver composite (av of 3) [3, 7]: -2.041% | contrast enhancement, liver composite (av of 3) [3, 8]: -2.714% | contrast enhancement, liver composite (av of 3) [3, 9]: -1.063% | contrast enhancement, liver composite (av of 3) [3, 10]: -0.232% | contrast enhancement, liver composite (av of 3) [3, 12]: -0.422% | contrast enhancement, liver composite (av of 3) [3, 11]: 0.000%
